# Measurements taken from patent US9718810B2, “Solid state forms of a quinazoline derivative and its use as a BRAF inhibitor” (Ignyta, Inc., priority 2013, dated 2017).
# Read-outs that look alike come from different tables or passages of the source.
# Tests used:
# [1] = Solubility of Form A0 in organic solvents at the boiling point; assay type: physicochemical; conditions: for solubility: organic solvent or mixture, thermodynamic from solid, read-out: Solubility Estimate at The Boiling Point
# Procedure: The following procedure was used to assess the solubility of the anhydrous free base of Compound I (Form A0) in a range of nine organic solvents listed in Table 3. Using 1.8 mL HPLC vials, approximately 10 mg of Form A0 was stirred at the boiling point in 200 μL of nine different solvents. […] The additions were stopped when the solid dissolved or when 1000 μL had been dispensed. […] Methyl t-butyl ether was chosen as an anti-solvent (<10 mg/mL).
# [2] = Solid-state stress stability at 40° C./75% RH; assay type: physicochemical; conditions: for Area Purity / HPLC Assay / XRPD: 40° C./75% RH; for solid state stability: 40° C./75% relative humidity without desiccant
# Procedure: Typically 1-5 mg of samples were diluted to 10 mL with sample solvent (1:1 (v:v) Mobile phase A:Mobile phase B) and the assay concentrations were determined from an average of duplicate injections using the following HPLC method. The purity and impurity analyses are done using conventional HPLC. Samples of Compound I free base and its salts (approximately 10 mg each) were stored at 40° C./75% RH in open glass vials (4 cm^3) over four weeks without desiccant. Stress stability studies were performed to get a timely impression of the influence of temperature and humidity on Form stability.
# [3] = Gravimetric vapor sorption (GVS); assay type: physicochemical; conditions: for XRPD after GVS analysis: form change after GVS cycles; for hygroscopicity: adsorption and desorption curves overlap
# Procedure: GVS experiments have been carried out using the DVS-HT instrument (Surface Measurement Systems, London, UK). This instrument measures the uptake and loss of vapor gravimetrically using a recording ultra-microbalance with a mass resolution of ±0.1 μg. The vapor partial pressure (±1.0%) around the sample is controlled by mixing saturated and dry carrier gas streams using electronic mass flow controllers. The desired temperature is maintained at ±0.1° C. The samples (1-10 mg) were placed into the DVSHT and DVS-1 instruments at the desired temperature. The sample was loaded and unloaded at 40% RH and 25° C. (typical room conditions). A moisture sorption isotherm was performed as outlined below (2 scans giving 1 complete cycle). The software uses a least squares minimization procedure together with a model of the mass relaxation, to predict an asymptotic value. The measured mass equilibration value must be within 2% of that predicted by the software before the next % RH value is selected. The minimum equilibration time was set to 1 hour and the maximum to 4 hours.
# [4] = Kinetic solubility measurement in pure water; assay type: physicochemical; conditions: for pH: pH of the aqueous solubility sample; for Aqueous solubility: pure water, ambient room temperature, 20 minutes, expressed as free base
# Procedure: Typically 1-5 mg of samples were diluted to 10 mL with sample solvent (1:1 (v:v) Mobile phase A:Mobile phase B) and the assay concentrations were determined from an average of duplicate injections using the following HPLC method. The purity and impurity analyses are done using conventional HPLC.
# The free base and the salts listed in the table below were added in excess (saturation) to water in a 2.0 mL glass vial. The samples were put on an end-to-end rotator (50 rpm) at ambient room temperature up to 20 minutes. After 20 minutes, a sampling was taken for HPLC analysis.
# BRAF V600E [5] = target: T1, BRAF V600E (Homo sapiens, UniProt P15056, V600E); assay: BRAF V600E inhibition in intact cells; assay type: cell-based; conditions: in vitro
# BRAF V600E [6] = target: T1, BRAF V600E; assay: BRAF V600E inhibition in isolated systems; assay type: biochemical; conditions: in vitro
# [7] = Methyl-t-butyl Ether, 55.2 ° C.
# T1 sequence (P15056 whole entry V600E): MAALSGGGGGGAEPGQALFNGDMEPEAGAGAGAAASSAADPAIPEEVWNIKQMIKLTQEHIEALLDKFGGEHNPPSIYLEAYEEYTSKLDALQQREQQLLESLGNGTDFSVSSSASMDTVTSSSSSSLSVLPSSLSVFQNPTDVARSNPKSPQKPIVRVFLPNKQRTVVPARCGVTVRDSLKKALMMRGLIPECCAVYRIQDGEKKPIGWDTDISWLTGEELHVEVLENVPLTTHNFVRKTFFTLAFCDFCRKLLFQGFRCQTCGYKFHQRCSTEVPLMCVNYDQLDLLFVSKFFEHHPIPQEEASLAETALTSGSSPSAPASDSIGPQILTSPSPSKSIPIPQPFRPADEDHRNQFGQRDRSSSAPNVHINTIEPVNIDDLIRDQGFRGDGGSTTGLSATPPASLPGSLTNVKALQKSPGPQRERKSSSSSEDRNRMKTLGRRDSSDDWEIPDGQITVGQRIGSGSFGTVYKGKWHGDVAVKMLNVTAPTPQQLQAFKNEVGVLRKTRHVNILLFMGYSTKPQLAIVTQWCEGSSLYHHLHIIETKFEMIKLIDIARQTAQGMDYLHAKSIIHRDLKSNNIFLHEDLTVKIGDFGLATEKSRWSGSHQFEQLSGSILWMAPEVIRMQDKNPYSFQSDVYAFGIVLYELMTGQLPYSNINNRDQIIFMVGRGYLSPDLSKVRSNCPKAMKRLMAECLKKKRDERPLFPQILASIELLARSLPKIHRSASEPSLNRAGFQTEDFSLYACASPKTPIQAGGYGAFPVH
Structure (SMILES),Area Purity ([2]; 0 days) [%],HPLC Assay ([2]; 0 days) [%],XRPD ([2]; 0 days),Area Purity ([2]; 14 days) [%],HPLC Assay ([2]; 14 days) [%],XRPD ([2]; 14 days),Area Purity ([2]; 28 days) [%],HPLC Assay ([2]; 28 days) [%],XRPD ([2]; 28 days),solid state stability ([2]; 28 days),GVS: Percent increase in mass at 90% RH ([3]; 25° C.) [%],XRPD after GVS analysis [3],pH [4],amount of moisture adsorbed at 75% RH ([3]; 25° C.),hygroscopicity [3],Aqueous solubility [4] [mg/mL],other results
COc1cc2ncnc(Oc3cccc(NC(=O)Nc4cc(C(C)(C)C(F)(F)F)on4)c3)c2cc1OC [Form A0],98.3,100.0,Form A0,98.5,100.5,Form A0,98.2,102.4,Form A0,stable for 28 days,1.3,compares nicely to the pattern of the material before GVS,7.4,,,,"Solubility Estimate at The Boiling Point [1, 7]: <10 mg/mL; solubility ([1]; Acetone, 56.5 ° C.): > 50 mg/mL; solubility ([1]; Acetonitrile, 82.0 ° C.): < 20 mg/mL; solubility ([1]; Chloroform, 61.2 ° C.): > 50 mg/mL; solubility ([1]; Dichloromethane, 40.0 ° C.): > 20 mg/mL; solubility ([1]; Ethyl Acetate, 77.1 ° C.): < 30 mg/mL; solubility ([1]; Methanol, 64.7 ° C.): < 20 mg/mL; solubility [1, 7]: < 10 mg/mL; solubility ([1]; Tetrahydrofuran, 66.0 ° C.): > 50 mg/mL; solubility ([1]; Toluene, 110.6 ° C.): < 30 mg/mL; Area Purity ([2]; 6 days): 98.5%; HPLC Assay ([2]; 6 days): 102.3%; XRPD ([2]; 6 days): Form A0; XRPD after GVS analysis ([3]; listed as A0): No change; moisture uptake ([3]; from 40 to about 90% RH): less than 1.3 % (w/w); Aqueous solubility ([4]; listed as Free base A0): <0.01 mg/mL"
COc1cc2ncnc(Oc3cccc(NC(=O)Nc4cc(C(C)(C)C(F)(F)F)on4)c3)c2cc1OC.O=P(O)(O)O [Phosphate A1],,,,,,,,,,,2.7,No change,6.8,less than 1.8%,not hygroscopic,0.09,"GVS: Percent increase in mass at 90% RH ([3]; 25° C., listed as phosphate Form A1): approximately 2.7%; XRPD after GVS analysis ([3]; listed as phosphate Form A1): compares nicely to the pattern of the material before GVS"
COc1cc2ncnc(Oc3cccc(NC(=O)Nc4cc(C(C)(C)C(F)(F)F)on4)c3)c2cc1OC [Bromide A1],,,,,,,,,,,1.0,No change,6.6,less than 0.7%,not hygroscopic,0.1,"GVS: Percent increase in mass at 90% RH ([3]; 25° C., listed as Bromide Form A1): approximately 1%; XRPD after GVS analysis ([3]; listed as Bromide Form A1): compares nicely to the pattern of the material before GVS"
COc1cc2ncnc(Oc3cccc(NC(=O)Nc4cc(C(C)(C)C(F)(F)F)on4)c3)c2cc1OC.O=C(O)CC(=O)O [Malonate A1],,,,,,,,,,,,No form change occurred,6.6,,,0.07,"total uptake of water ([3]; RH range of 0-90%, 25° C.): < 4%"
COc1cc2ncnc(Oc3cccc(NC(=O)Nc4cc(C(C)(C)C(F)(F)F)on4)c3)c2cc1OC.Cl [Chloride A1],99.5,99.9,Form A1,97.6,98.7,Form A1,96.4,100.4,Form A1,stable for 28 days,1.7,No change,7.3,,,0.56,"Area Purity ([2]; 7 days): 98.7%; HPLC Assay ([2]; 7 days): 98.3%; XRPD ([2]; 7 days): Form A1; XRPD after GVS analysis ([3]; listed as Chloride Form A1): No form change occurred; dissolution in pure water, ranking of salts ([4]; pure water (pH=7)): best salt for dissolution in pure water"
"COc1cc2ncnc(Oc3cccc(NC(=O)Nc4cc(C(C)(C)C(F)(F)F)on4)c3)c2cc1OC [Compound I, 1-[3-(6,7-dimethoxy-quinazolin-4-yloxy)-phenyl]-3-[5-(2,2,2-trifluoro-1,1-dimethyl-ethyl)-isoxazol-3-yl]-urea]",,,,,,,,,,,,,,,,,inhibits BRAF V600E (BRAF V600E [5]): low nanomolar concentrations; inhibits BRAF V600E (BRAF V600E [6]): low nanomolar concentrations
